Experimental data reported in patent US6525059B1, “Substituted pyrazoles as p38 kinase inhibitors” (G. D. Searle & Company, priority 1998, dated 2003).
Where two headings read alike, the source gives them in different places.

How the values were obtained:
TNF-α = assay: LPS stimulation of TNF production by U937 cells; format: cell-based, human; settings: for inhibition at 1 µM: U-937, @ 1.0 uM, read-out: U937 Cell % inhib @ conc.
Summary of the method: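 PMA-differentiated human U937 cells (20 ng/ml PMA, 24 h, then 24-48 h rest) at 2 million cells/ml, 0.1% DMSO final, stimulated with E. coli LPS (100 ng/ml final) for 4 h at 37° C. TNF-α in medium measured by ELISA; IC50 in μM.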

human p38 kinase alpha = target: T1, human p38 kinase alpha (Homo sapiens, UniProt Q16539); assay: p38 kinase in vitro assay, phosphorylation of biotinylated PHAS-I with gamma 32P-ATP; format: biochemical; settings: for inhibition at 1 µM: read-out: P38 alpha kinase % inhib @ conc.
T1 construct: The coding region of the human p38a cDNA was obtained by PCR-amplification from RNA isolated from the human monocyte cell line THP.1; GST (N); made in house; host or cells: E. coli DH10B
Summary of the method: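 MKK6-activated human p38α phosphorylates biotinylated PHAS-I with γ-32P-ATP in 25 mM HEPES pH 7.5, 10 mM Mg acetate, 50 μM unlabeled ATP, 1% DMSO, 30 °C for 1 h or overnight. Compounds at 100–0.001 μM (10-fold steps, triplicate); substrate captured on streptavidin filter plates and counted by scintillation.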

[1] = Homo sapiens, U-937, TNF production, LPS-stimulated human U937 cells, read-out: U937 Cell IC50
[2] = read-out: P38 alpha kinase IC50
[3] = Homo sapiens, U-937, LPS-stimulated U937 cells, read-out: U937 IC50
[4] = p38α in vitro, PHAS-I assay procedure, read-out: p38^1 IC50

T1 sequence (Q16539 whole entry): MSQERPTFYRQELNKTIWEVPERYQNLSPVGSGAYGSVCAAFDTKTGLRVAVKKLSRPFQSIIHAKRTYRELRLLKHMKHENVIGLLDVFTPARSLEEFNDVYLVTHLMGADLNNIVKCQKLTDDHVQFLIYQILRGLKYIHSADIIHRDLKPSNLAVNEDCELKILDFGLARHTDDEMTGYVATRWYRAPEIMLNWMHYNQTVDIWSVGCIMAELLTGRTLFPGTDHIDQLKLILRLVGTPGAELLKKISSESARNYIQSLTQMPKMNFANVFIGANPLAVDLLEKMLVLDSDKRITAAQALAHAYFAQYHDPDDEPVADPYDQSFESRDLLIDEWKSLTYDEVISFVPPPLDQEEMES

Row | Structure (SMILES) | IC50 (human p38 kinase alpha; [2]) | inhibition at 1 µM (TNF-α; Homo sapiens) | other results
1 | C[C@@H](NC(N)=O)c1[nH]nc(-c2ccc(F)cc2)c1-c1ccncc1 [Example B-0402] | 140 nM |  | IC50 (TNF-α; [1]): 1510 nM
2 | O=S(=O)(NCc1[nH]nc(-c2ccc(F)cc2)c1-c1ccncc1)c1ccc(F)cc1 [Example B-0104] |  |  | IC50 (TNF-α; [1]): 2780 nM; inhibition at 1 µM (human p38 kinase alpha): 56%
3 | CC(=O)Nc1ccc(S(=O)(=O)NCc2[nH]nc(-c3ccc(F)cc3)c2-c2ccncc2)cc1 [Example B-0223] | 200 nM | 1% | 
4 | CC(C)=CC(=O)N[C@H](C)c1[nH]nc(-c2ccc(F)cc2)c1-c1ccncc1 [Example B-0370] | 650 nM | 28% | 
5 | COc1ccccc1C(=O)NCc1[nH]nc(-c2ccc(F)cc2)c1-c1ccncc1 [Example B-0011] | 30 nM |  | IC50 (TNF-α; [1]): 4470 nM
6 | COC(=O)c1ccccc1S(=O)(=O)NCc1[nH]nc(-c2ccc(F)cc2)c1-c1ccncc1 [Example B-0108] |  |  | IC50 (TNF-α; [1]): 4850 nM; inhibition at 1 µM (human p38 kinase alpha): 61%
7 | C[C@@H](NC(=O)c1cc(F)ccc1F)c1[nH]nc(-c2ccc(F)cc2)c1-c1ccncc1 [Example B-0520] | 400 nM | 67% | 
8 | CCCNC(=O)N[C@H](C)c1[nH]nc(-c2ccc(F)cc2)c1-c1ccncc1 [Example B-0413] | 180 nM | 55% | 
9 | CCCCCc1ccc(NC(=O)NCc2[nH]nc(-c3ccc(F)cc3)c2-c2ccncc2)cc1 [Example B-0156] |  |  | U937 Cell % inhib @ conc. (TNF-α; @ 1.0 uM): 13.0% @ 1.0 uM; P38 alpha kinase % inhib @ conc. (human p38 kinase alpha; @ 10.0 uM): 42.0% @ 10.0 uM
10 | C[C@@H](NC(=O)c1cccc(Br)c1)c1[nH]nc(-c2ccc(F)cc2)c1-c1ccncc1 [Example B-0362] | 520 nM | 27% | 
11 | CC(C)(C)C(=O)NC(Cc1ccccc1)c1[nH]nc(-c2ccc(F)cc2)c1-c1ccncc1 (stereo not shown) [Example B-0791] | 300 nM |  | IC50 (TNF-α; TNF production, LPS-stimulated human U937 cells, read-out: U937 Cell IC50): > 1000 nM
12 | CN(C)CCn1cc(-c2ccnc(CCc3ccc(F)cc3)c2)c(-c2ccc(F)cc2)n1 [Example A-275, 3-(4-fluorophenyl)-4-[2-[2-(4-fluorophenyl)ethyl]-4-pyridinyl]-N,N-dimethyl-1H-pyrazole-1-ethanamine] |  |  | IC50 (TNF-α; [3]): > 10000 nM; IC50 (human p38 kinase alpha; [4]): 10100 nM
13 | C[C@@H](NC(=O)c1cc(C(F)(F)F)ccc1F)c1[nH]nc(-c2ccc(F)cc2)c1-c1ccncc1 [Example B-0506] | 940 nM | 43% | 
14 | Cc1cc(C)c(S(=O)(=O)N[C@H](C)c2[nH]nc(-c3ccc(F)cc3)c2-c2ccncc2)c(C)c1 [Example B-0439] | 2120 nM | 65% | 
15 | O=S(=O)(NCc1[nH]nc(-c2ccc(F)cc2)c1-c1ccncc1)c1ccccc1C(F)(F)F [Example B-0236] | 77 nM | 46% | 
16 | C#CCn1ncc(-c2ccncc2)c1-c1ccc(F)cc1 [Example A-295, 4-[5-(4-fluorophenyl)-1-(2-propynyl)-1H-pyrazol-4-yl]pyridine] |  |  | IC50 (TNF-α; [3]): > 10000 nM; IC50 (human p38 kinase alpha; [4]): 7660 nM
17 | O=C(NCc1[nH]nc(-c2ccc(F)cc2)c1-c1ccncc1)c1cccc(Cl)c1 [Example B-0300] | 780 nM | 32% | 
18 | C[C@@H](NC(=O)N[C@H](C)c1[nH]nc(-c2ccc(F)cc2)c1-c1ccncc1)c1ccccc1 [Example B-0414] | 540 nM | 25% | 
19 | C[C@@H](NC(=O)c1c(F)cc(F)cc1F)c1[nH]nc(-c2ccc(F)cc2)c1-c1ccncc1 [Example B-0507] | 180 nM | 75% | 
20 | C[C@@H](NS(=O)(=O)c1ccc(F)cc1F)c1[nH]nc(-c2ccc(F)cc2)c1-c1ccncc1 [Example B-0390] | 89 nM | 55% | 
21 | CCS(=O)(=O)NCc1[nH]nc(-c2ccc(F)cc2)c1-c1ccncc1 [Example B-0105] |  |  | IC50 (TNF-α; [1]): 5000 nM; inhibition at 1 µM (human p38 kinase alpha): 78%
22 | CC(C)NC(=O)NCc1[nH]nc(-c2ccc(F)cc2)c1-c1ccncc1 [Example B-0149] | 1150 nM |  | IC50 (TNF-α; [1]): 10000 nM
23 | C[C@@H](NS(=O)(=O)c1c(Cl)cccc1Cl)c1[nH]nc(-c2ccc(F)cc2)c1-c1ccncc1 [Example B-0453] | 470 nM | 75% | 
24 | COc1cccc(CC(=O)N[C@H](C)c2[nH]nc(-c3ccc(F)cc3)c2-c2ccncc2)c1 [Example B-0373] | 450 nM | 18% | 
25 | CC(=O)Nc1ccc(S(=O)(=O)N[C@H](C)c2[nH]nc(-c3ccc(F)cc3)c2-c2ccncc2)cc1 [Example B-0431] | 210 nM | 64% | 
26 | Cc1c(Cl)cccc1S(=O)(=O)N[C@H](C)c1[nH]nc(-c2ccc(F)cc2)c1-c1ccncc1 [Example B-0447] | 190 nM | 71% | 
